# Experimental data from paper PMC3191538 (Bioorganic & medicinal chemistry, 2011).
# Values joined by “and” are separate entries in the source; they are usually repeats but may differ in a detail not shown here. Identical values can stand only once.
# Tests used:
# HG23 cells = test: Cytotoxic effects on HG23 cells; format: cell-based; settings: median toxic dose at 48 hr of treatment, 0-320 μM
# [1] = tested on: Norwalk virus 3C protease; settings: unpublished data; cited from earlier work
# [2] = tested on: Norwalk virus (NV) replicon in HG23 cells; test: Antiviral effect in NV replicon-harboring cells; format: cell-based; settings: discussion of Table 1
SMILES,TD50 (HG23 cells),inhibition of Norwalk virus 3C protease (in words) [1],anti-norovirus activity (in words) [2]
"O=S1(=O)NCCN1Cc1cccc(Oc2ccccc2)c1 [Compound 2a, 2-(3-Phenoxybenzyl)-1,2,5-thiadiazolidine 1,1-dioxide]",50 ± 9.2 µM,does not arise from the inhibition of Norwalk virus 3C protease,–
"O=S1(=O)NCCN1CC1CCCN(Cc2ccccc2)C1 (stereo not shown) [Compound 12, 1-Benzyl-3-[(1,1-dioxido-1,2,5-thiadiazolidin-2-yl)methyl]piperidine]",–,–,devoid of anti-norovirus activity
"NC(=O)CN1CCN(Cc2cccc(Oc3ccccc3)c2)S1(=O)=O [Compound 13m, 2-[5-(3-Phenoxybenzyl)-1,1-dioxido-1,2,5-thiadiazolidin-2-yl]acetamide]",–,–,lacked activity
"O=C(O)CN1CCN(Cc2cccc(Oc3ccccc3)c2)S1(=O)=O [Compound 14a, [5-(3-Phenoxybenzyl)-1,1-dioxido-1,2,5-thiadiazolidin-2-yl]acetic acid]",–,–,active
"O=C(O)CCCCN1CCN(Cc2cccc(Oc3ccccc3)c2)S1(=O)=O [Compound 14d, 5-[5-(3-Phenoxybenzyl)-1,1-dioxido-1,2,5-thiadiazolidin-2-yl]pentanoic acid]",–,–,active
"O=S1(=O)N(CCN2CCOCC2)CCN1Cc1cccc(Oc2ccccc2)c1 [Compound 17a, 4-{2-[5-(3-Phenoxybenzyl)-1,1-dioxido-1,2,5-thiadiazolidin-2-yl]ethyl}morpholine]",51 ± 3.2 µM and 49 ± 7.7 µM,–,–
